Earlier results in patent US20240335498A1, “COMPOSITION AND METHODS OF TREATMENT USING TRANSDERMAL SUPPLEMENTATION” (Xygenyx Inc., priority 2023, published 2024).
Square brackets hold non-standard residues; d marks the D form. Peptide text beside a SMILES is read from it. Cit = NC(=O)NCCC[C@H](N)C(=O)O

Experiments:
[1] = dietary supplementation, doses up to 400 IU/day
F2-isoprostane = settings: large doses of 1600-3200 IU/day
[2] = compared to α-tocopherol = 1.0
[3] = in vivo
[4] = penetration enhancer used alone
[5] = even when dietary intake occurs in equal portions
[6] = system: wide dynamic range neurons in the ventroposterolateral nucleus of the thalamus
[7] = topical formulations, within four weeks of treatment
[8] = topical application, concentrations 0.5-5%

**Q.** Which results are given for `Cc1c(C)c2c(c(C)c1O)CC[C@@](C)(CCC[C@H](C)CCC[C@H](C)CCCC(C)C)O2` [α-tocopherol]?
**A.** reduction of the risk of coronary disease [1]: up to 34%; reduction of the risk of developing neurodegenerative diseases such as Alzheimer's Syndrome or dementia ([1]; controlled trials): ≤ 24%; blood plasma concentration of F2-isoprostane (F2-isoprostane): significantly lower; relative biological activity [2]: 1.0

**Q.** For “HGH: hormone comprising a peptide chain that is synthesized in the pituitary gland”, which biological half-life [3] is on record?
**A.** Its biological half-life is 10-20 minutes.

**Q.** For `Cc1cc(O)cc2c1O[C@](C)(CCC[C@H](C)CCC[C@H](C)CCCC(C)C)CC2` [δ-tocopherol], which relative biological activity [2] is on record?
**A.** The relative biological activity was 0.03.

**Q.** Which relative biological activity [2] does the source give for `Cc1cc(O)c(C)c2c1O[C@](C)(CCC[C@H](C)CCC[C@H](C)CCCC(C)C)CC2` [β-tocopherol] here?
**A.** Its relative biological activity is 0.5.

**Q.** With `C/C(=C\CO)CCC[C@H](C)CCC[C@H](C)CCCC(C)C` [phytol, Phytol] as the molecule, how does the solubility in water read?
**A.** Its solubility in water is “nearly insoluble”.

**Q.** Which “increase of transdermal drug uptake (factor)” value [4] does the source give for `CC12CCC(CC1)C(C)(C)O2` [eucalyptol, Eucalyptol] here?
**A.** Its value is “more than 10”.

**Q.** Which relative biological activity [2] does the source give for `Cc1c(O)cc2c(c1C)O[C@](C)(CCC[C@H](C)CCC[C@H](C)CCCC(C)C)CC2` [γ-tocopherol] here?
**A.** Its relative biological activity is 0.1.

**Q.** And the “concentration in vivo relative to α-tocopherol” value [5]?
**A.** Its value is “roughly 10%”.

**Q.** With `CCCCCc1cc(O)c2c(c1)OC(C)(C)C1CCC(C)=CC21` (stereo not drawn) [THC, Δ-9-tetrahydrocannabinol] as the molecule, how does the “power in mediating pain relative to morphine” value [6] read?
**A.** The value was “ten times more powerful”.

**Q.** For `CC[C@H](C)[C@H](NC(=O)[C@H](CC(=O)O)NC(=O)[C@@H](N)CCCCN)C(=O)N[C@@H](CCCNC(N)=O)C(N)=O` [tripeptide-10 citrulline, Tripeptide-10 citrulline] (H-KDI[Cit]-NH2), which improvement of suppleness [7] is on record?
**A.** The improvement of suppleness was at most 54%.

**Q.** Which “time to skin lightening effects” value [8] does the source give for `C=CCCCCCCCCC(=O)N[C@@H](Cc1ccccc1)C(=O)O` [UP, Undecylenoyl phenylalanine] here?
**A.** The value was at least 7 days.

**Q.** With `CC(C)[C@@H]1CC[C@@H](C)C[C@H]1O` [Menthol] as the molecule, how does the “increase of transdermal drug uptake (factor)” value [4] read?
**A.** The value was at least 10.
